Experimental data published in US20240374523A1, “STABILIZED APILIMOD COMPOSITIONS AND USES THEREOF” (Orphai Therapeutics Inc., priority 2021, published 2024).
In brackets after ≈: the same amount, converted by molar mass. Entries after “also recorded” stand apart in the source; their conditions may differ. Counter-ions that a name gives are not always drawn. Like-named read-outs stand apart in the source and are kept apart here.

Experiments:
[1] = cited from earlier work
[2] = Solubility of apilimod vs pH in 0.1N HCl and Britton-Robinson buffers; format: physicochemical; settings: for solubility at 3 days / solubility thermodynamic at 3 days: thermodynamic from solid; for solubility thermodynamic at 3 days: Britton-Robinson buffer
Experimental: Next, the solubility of apilimod at various pH was evaluated. The samples were prepared at room temperature in 0.1N HCl (pH 1) and Britton-Robinson buffers (BRB) pH 2, 3, 4, 5, 6, 7 and 8. After 3 days, each sample was centrifuged for 30 min, the solution was filtered and the concentration of apilimod determined by HPLC analysis. HPLC analysis was carried out using an XTerra MS C18 (5 μm 4.6×150 mm) column and 18-minute gradient HPLC conditions.

[3] = PXRD of residual solids after the IDR experiment; format: physicochemical; settings: pellet surface after IDR experiment, compared with input API
Experimental: X-Ray Powder Diffraction (XRPD). […] Configuration on the incidental beam side: variable divergence slits (10 mm irradiated length), 0.04 rad Soller slits, fixed anti-scatter slit) (0.50°, and 10 mm beam mask. Configuration on the diffracted beam side: variable anti-scatter slit (10 mm observed length) and 0.02 rad Soller slit. Samples were mounted flat on zero-background Si wafers.
At the end of the IDR analysis, the pellet surface was analyzed by PXRD and compared to its corresponding input API for any physical changes.

[4] = system: IL-12/IL-23 synthesis; settings: oral administration, patients with psoriasis, open-label (Wada et al. 2012); cited from earlier work
[5] = system: synovial IL-12 and IL-23 expression; settings: patients with rheumatoid arthritis, Phase II (Krauz et al. 2012); cited from earlier work
[6] = system: active Crohn's disease; settings: active Crohn's disease (Sands et al. 2010); cited from earlier work
[7] = Kinetic solubility in FaSSIF (pH 6.5); format: physicochemical; settings: FaSSIF pH 6.5, 1 hour
Experimental: Additional kinetic solubility studies were carried out in Fasted State Simulated Intestinal Fluid (FaSSIF) at pH6.5 at ambient temperature and the results are shown in FIG. 3. FaSSIF helps reveal how an oral drug is likely to dissolve and potentially be absorbed in fluid from the upper intestine after drinking a glass of water. […] After 1 hour of stirring, all samples appeared to be hazy suspensions, but after 4 and 24 hours their appearance changed to a milky white suspension by PXRD analysis.

[8] = Kinetic solubility in FaSSGF (pH 1.6); settings: after test in FaSSGF
Experimental: Kinetic solubility studies were carried out on the various apilimod salts provided in Table 1 in Fasted State Simulated Gastric Fluid (FaSSGF) at pH 1.6 at ambient temperature. FaSSGF is a dissolution medium that has the average acidic pH and similar osmolarity of fasted gastric fluid. FaSSGF that can help reveal how an oral drug is likely to behave in the stomach after drinking a glass of water. The stability, solubility and dissolution data generated from testing in FaSSGF can help identify critical factors influencing a drug's absorption in the fasted state, and in turn facilitate the selection of the appropriate solid state and formulation approach for a drug.

[9] = Intrinsic dissolution rate (stationary disk, 0.01N HCl); format: physicochemical; parameters: Intrinsic Dissolution Rate free base equivalent: unit not given here; settings: 37° C.; for Intrinsic Dissolution Rate free base equivalent: disk pressed at 3900 psi, 700 mL 0.01N HCl, paddle 50 rpm, UV 333 nm
Experimental: Stationary disks for apilimod free base and the nine apilimod salts were prepared. Intrinsic dissolution rate of the free base and the nine salts were prepared from preparations at 3900 psi. Each disk was placed into a flat bottom vessel containing 700 mL of 0.01N HCl medium equipped with a Distek Dissolution bath, and a Distek cirvulator/heater set to 37°° C. with a paddle speed of 50 rpm. The Opt-Diss 405 system single analytical wavelength settings was 333 nm with a background wavelength setting of 400 nm and reading were taken every 1 minute to 35 minutes. […] The kinetic solubility of the salt behavior is unpredictable and the dramatic difference between the non-mesylate salts was an unexpected discovery in the behavior of the salts.

[10] = aqueous solubility of the disalt; cited from earlier work
[11] = pKa of the counter-acid, not of the apilimod salt

1-hydroxy-2-naphthoate
pKa of Acid (first value) [1, 11]: 2.7 | pKa of Acid (second value) [1, 11]: 13.5

Cc1cccc(/C=N/Nc2cc(N3CCOCC3)nc(OCCc3ccccn3)n2)c1 [Apilimod]
solubility at 3 days ([2]; 0.1N HCl, pH 1, simulated gastric fluid, pH of approximately 1, read-out: solubility): > 10000 µg/mL | PXRD of Residuals Day 3 ([2]; BRB pH 2): Phosphate salt | Conc Day 3 ([2]; BRB pH 2, medium pH 1.99, prep. 11 mg/mL, room temperature, Day 3 pH 2.75): 137 µg/mL | PXRD of Residuals Day 3 ([2]; BRB pH 3): Phosphate salt | PXRD of Residuals Day 3 ([2]; BRB pH 4): Free base, hydrate Group B | PXRD of Residuals Day 3 ([2]; BRB pH 5): Free base, hydrate Group B | PXRD of Residuals Day 3 ([2]; BRB pH 6): Free base, hydrate Group B | PXRD of Residuals Day 3 ([2]; BRB pH 7): Free base, hydrate Group B | PXRD of Residuals Day 3 ([2]; BRB pH 8): Free base, hydrate Group B | solubility thermodynamic at 3 days ([2]; aqueous buffer, BRB pH 2, medium pH 1.99, prep. 11 mg/mL, room temperature, Day 3 pH 2.75, read-out: Conc Day 3): 137 µg/mL (≈ 327 µM) | solubility thermodynamic at 3 days ([2]; aqueous buffer, BRB pH 3, medium pH 2.88, prep. 2.8 mg/mL, room temperature, Day 3 pH 3.61, read-out: Conc Day 3): 17.3 µg/mL (≈ 41.3 µM) | solubility thermodynamic at 3 days ([2]; aqueous buffer, BRB pH 4, medium pH 4.11, prep. 2.8 mg/mL, room temperature, Day 3 pH 4.22, read-out: Conc Day 3): 2.3 µg/mL (≈ 5.5 µM) | solubility thermodynamic at 3 days ([2]; aqueous buffer, BRB pH 5, medium pH 5.04, prep. 2.8 mg/mL, room temperature, Day 3 pH 5.08, read-out: Conc Day 3): 0.2 µg/mL (≈ 0.478 µM) | solubility thermodynamic at 3 days ([2]; aqueous buffer, BRB pH 6, medium pH 6.15, prep. 2.7 mg/mL, room temperature, Day 3 pH 6.18, read-out: Conc Day 3): < 0.1 µg/mL | solubility thermodynamic at 3 days ([2]; aqueous buffer, BRB pH 7, medium pH 7.18, prep. 2.7 mg/mL, room temperature, Day 3 pH 7.21, read-out: Conc Day 3): < 0.1 µg/mL | solubility thermodynamic at 3 days ([2]; pH 7.9, aqueous buffer, BRB pH 8, medium pH 7.90, prep. 2.8 mg/mL, room temperature, Day 3 pH 8.01, read-out: Conc Day 3): < 0.1 µg/mL | PXRD of Residuals Day 3 ([2]; pH 1 (0.1N HCl)): In solution; no excess solid | solubility at 3 days ([2]; simulated gastric fluid, pH 1 (0.1N HCl), medium pH 1.08, prep. 11 mg/mL, room temperature, Day 3 pH 1.44, read-out: Conc Day 3): > 10700 µg/mL | Residual Solids By XRPD ([3]; listed as Free base): Matches Input | Residual Solids By XRPD ([3]; listed as free base): match the XRPD pattern of the initial input material | immunomodulatory activity [4]: showed immunomodulatory activity supporting the inhibition of IL-12/IL-23 synthesis | effect on synovial IL-12 and IL-23 expression [5]: failed to alter synovial IL-12 and IL-23 expression | efficacy over placebo [6]: did not demonstrate efficacy over placebo | tolerability [6]: well tolerated

Cc1cccc(/C=N/Nc2cc(N3CCOCC3)nc(OCCc3ccccn3)n2)c1 [HCl]
solubility in FaSSIF relative to other forms [7]: higher solubility at 1 hour compared to the other salts and the freebase | Residual Solids By XRPD [3]: match the XRPD pattern of the initial input material; also recorded: Matches Input | pKa of acid ([1]; strong acids required for disalt formation, per the '436 patent): −4.5

Cc1cccc(/C=N/Nc2cc(N3CCOCC3)nc(OCCc3ccccn3)n2)c1.Cc1cccc(/C=N/Nc2cc(N3CCOCC3)nc(OCCc3ccccn3)n2)c1.O=C(O)/C=C/C(=O)O [Hemi-fumarate]
residues by powder diffraction (PXRD) [8]: crystalline, and matched input salts | intrinsic dissolution rate relative to D/L-Lactate and HCl salts ([9]; 0.01N HCl): less that 10-times lower | Residual Solids By XRPD [3]: Matches Input | Residual Solids By XRPD ([3]; listed as hemi-fumarate): match the XRPD pattern of the initial input material | pKa of Acid (first value) [1, 11]: 3.0 | pKa of Acid (second value) [1, 11]: 4.4

Cc1cccc(/C=N/Nc2cc(N3CCOCC3)nc(OCCc3ccccn3)n2)c1.O=C(O)CC(=O)O [Malonate]
Residual Solids By XRPD [3]: Matches Input | Residual Solids By XRPD ([3]; listed as malonate): match the XRPD pattern of the initial input material | pKa of Acid (first value) [1, 11]: 2.8 | pKa of Acid (second value) [1, 11]: 5.7

Cc1cccc(/C=N/Nc2cc(N3CCOCC3)nc(OCCc3ccccn3)n2)c1.O=P(O)(O)O [Phosphate]
Residual Solids By XRPD [3]: Matches Input | Residual Solids By XRPD ([3]; listed as phosphate): match the XRPD pattern of the initial input material | pKa of Acid (first value) [1, 11]: 2.0 | pKa of Acid (second value) [1, 11]: 7.1 | pKa of Acid (third value) [1, 11]: 12.3

Cc1cccc(/C=N/Nc2cc(N3CCOCC3)nc(OCCc3ccccn3)n2)c1.O=C(O)CCC(=O)O [Succinate]
pKa of Acid (first value) [1, 11]: 4.2 | pKa of Acid (second value) [1, 11]: 5.6

Cc1cccc(C=NNc2cc(N3CCOCC3)nc(OCCc3ccccn3)n2)c1.Cl.Cl [dichloride]
solubility in water [10]: 213000 µg/mL

Glycolate
Intrinsic Dissolution Rate free base equivalent [9]: 0.2670 | Residual Solids By XRPD [3]: consistent with the input material and the poorly crystalline phase | pKa of Acid (first value) [1, 11]: 3.3

L-Tartrate
Intrinsic Dissolution Rate free base equivalent [9]: 0.3399 | Residual Solids By XRPD [3]: match the XRPD pattern of the initial input material; also recorded: Matches Input | pKa of Acid (first value) [1, 11]: 3.0 | pKa of Acid (second value) [1, 11]: 4.4

Maleate
residues by powder diffraction (PXRD) [8]: crystalline, and matched input salts | Intrinsic Dissolution Rate free base equivalent [9]: 0.0871 | Residual Solids By XRPD [3]: Matches Input | Residual Solids By XRPD ([3]; listed as maleate): match the XRPD pattern of the initial input material | pKa of Acid (first value) [1, 11]: 1.9 | pKa of Acid (second value) [1, 11]: 6.2
